Conditions: Liquid; for mass density: Buoyancy - hydrostatic balance with magnetic suspension - one sinker

C=CCCCC [hex-1-ene]
Conditions | mass density [kg/m3] | viscosity [mPa·s]
298.15 K, 98 kPa | 669.71 | 0.271
298.15 K, 24510 kPa | 696.93 | 0.337
298.15 K, 49030 kPa | 714.95 | 0.415
298.15 K, 98060 kPa | 744.22 | 0.55
298.15 K, 147100 kPa | 763.36 | 0.705
298.15 K, 196130 kPa | 778.91 | 0.876
298.15 K, 245160 kPa | 793.17 | 1.093
303.15 K, 98 kPa | 664.87 | 0.256
303.15 K, 24510 kPa | 690.93 | 0.321
303.15 K, 49030 kPa | 711.55 | 0.395
303.15 K, 98060 kPa | 741.4 | 0.525
303.15 K, 147100 kPa | 761.37 | 0.67
303.15 K, 196130 kPa | 776.19 | 0.84
303.15 K, 245160 kPa | 791.19 | 1.034
312.92 K, 98 kPa | 655.77 | 0.232
325.17 K, 98 kPa | 644.12 | 0.21
325.99 K, 98060 kPa | 729.28 | 0.442
326 K, 24510 kPa | 675.1 | 0.274
326.02 K, 49030 kPa | 694.93 | 0.328
326.05 K, 147100 kPa | 750.05 | 0.561
326.12 K, 196130 kPa | 767.98 | 0.694
326.15 K, 245160 kPa | 783.2 | 0.836
364.25 K, 245160 kPa | 767.68 | 0.628
364.63 K, 196130 kPa | 751.74 | 0.54
364.69 K, 49030 kPa | 670.17 | 0.254
364.73 K, 24510 kPa | 645.55 | 0.214
364.75 K, 98060 kPa | 706.69 | 0.346
364.83 K, 147100 kPa | 731.74 | 0.437
398.25 K, 147100 kPa | 715.97 | 0.363
398.35 K, 245160 kPa | 753.74 | 0.516
398.37 K, 196130 kPa | 736.05 | 0.444
398.43 K, 24510 kPa | 618.11 | 0.17
398.78 K, 98060 kPa | 687.13 | 0.287
398.87 K, 49030 kPa | 645.8 | 0.211
422.37 K, 245160 kPa | 743.17 | 0.456
422.71 K, 196130 kPa | 726.21 | 0.389
422.74 K, 147100 kPa | 703.54 | 0.319
422.9 K, 98060 kPa | 672.81 | 0.252
423.1 K, 49030 kPa | 630.04 | 0.184
423.18 K, 24510 kPa | 598.39 | 0.146
452.77 K, 24510 kPa | 575.45 | 0.124
453.14 K, 49030 kPa | 608.12 | 0.16
453.14 K, 196130 kPa | 712.63 | 0.338
453.19 K, 98060 kPa | 656.91 | 0.218
453.28 K, 147100 kPa | 687.84 | 0.277
453.52 K, 245160 kPa | 732.58 | 0.397
471.55 K, 196130 kPa | 704.21 | 0.315
471.64 K, 245160 kPa | 725.42 | 0.371
471.73 K, 49030 kPa | 598.79 | 0.15
471.78 K, 98060 kPa | 646.27 | 0.204
471.92 K, 24510 kPa | 560.56 | 0.115
472.02 K, 147100 kPa | 680.82 | 0.26
